In the METLIN SMRT retention time set (Domingo-Almenara et al. 2019):

Assay: gradient 5% acetonitrile 3 min, to 50% in 2 min, to 85% in 15 min, held 3 min, 100 µL/min
Conditions: column: Zorbax Extend-C18 2.1 x 50 mm; eluents: water / acetonitrile, 0.1% formic acid
Summary of the method: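 Retention times come from adduct peaks that were picked computationally and then checked by hand. The standards, pure and pooled in mixtures of ~100 molecules, were run on a Zorbax Extend-C18 column (2.1 × 50 mm, 1.8 μm) at 100 μL/min with water and acetonitrile, each with 0.1% formic acid. Detection was by quadrupole time-of-flight mass spectrometry in positive and negative ionization mode, with a dead volume of 40 μL and a dwell volume of 900 μL.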

| Structure (SMILES) | RP-LC retention time [s] |
| --- | --- |
| CCCN(CC1CCOC1)C(=O)Nc1ccc2c(c1)OCCO2 (stereo unspecified) | 732 |
| CN(C)c1nc(N)c(C(=O)N=C(N)N)nc1Cl | 661 |
| COc1ccc(NC(=O)C2CCN(C(=O)c3ncn4c3COC(c3ccc(OC)cc3)C4)CC2)cc1 (stereo unspecified) | 760 |
| O=C(NCc1nc(-c2ccc(-c3csc(-c4ccccc4)n3)cc2)no1)c1ccco1 | 1090 |
| CCc1ccc(S(=O)(=O)c2cnc(N3CCC4(CC3)OCCO4)nc2N)cc1 | 944 |
| Cc1ccc2oc(C(=O)NCC(c3ccccc3)N(C)C)cc(=O)c2c1 (stereo unspecified) | 619 |
| COc1ccc(CN2C(=O)[C@H](OC)[C@@H]2C2=CCN(S(=O)(=O)c3cccs3)CC2)cc1 | 872 |
| Cc1[nH]c(C)c(S(=O)(=O)N2CCC(C(=O)N3CCC(C)CC3)CC2)c1C(=O)N1CCCCC1 | 760 |
| CC1CCCCN1CCNC(=O)CCC(=O)N1CCc2c(c(C(=O)N3CCCCC3)nn2C)C1 (stereo unspecified) | 585 |
| O=C(Nc1ccc2cn[nH]c2c1)C1CN(c2nc3ccccc3s2)C1 | 630 |
| CCN1C(=O)COc2ccc(-c3nc(NC(=O)c4ccccc4Br)sc3C)cc21 | 1010 |
| O=C(NCc1cccc(Cl)c1)c1ccc(-c2nc3cccnc3n2C2CCCCC2)cc1 | 1050 |
| COc1ccccc1CNC(=O)Cn1cncc(C)c1=O | 618 |
| COc1ccc(-c2cc(C(=O)N3CCCC3c3cc(C)on3)on2)cc1 (stereo unspecified) | 865 |
| CCC1CCCCN1C(=O)CN1CCn2c1nc(C)c(C)c2=O (stereo unspecified) | 618 |
| O=C(c1cc(-c2ccncc2)nc2ccc(Cl)cc12)N1CCN(c2ccccn2)CC1 | 604 |
| Cc1ccc(CN(C(=O)COc2cc(C)c(Cl)c(C)c2)C2CCS(=O)(=O)C2)o1 (stereo unspecified) | 1030 |
| CC(C)N1CCN(Cc2ccc(C(=O)NC3CC3)cc2)C(=O)C1=O | 604 |
| CCC(C)Nc1cc(C)nc2c(C)c(-c3ccc(Cl)cc3)nn12 (stereo unspecified) | 807 |
| CCCn1c(=O)c(C)nc2cc(-c3noc(-c4ccc(OC)c(OC)c4)n3)ccc21 | 1090 |
| COc1ccc(-c2noc(-c3nc(C(C)C)no3)n2)cc1 | 1120 |
| CCNC(=O)c1nc(C(=O)NCCc2ccc(Cl)cc2)cs1 | 842 |
| CCc1ccc(CNC(=O)C2CCN(Cc3cn(C)c4ccc(OC)cc34)CC2)cc1 | 749 |

| Structure (SMILES) | RP-LC retention time [s] |
| --- | --- |
| COc1ccc(C(=O)NCC(=O)Nc2nc3ccccc3[nH]2)c(C)c1 | 630 |
| Cc1ccc(C)c(NC(=O)Cn2cnc3c(sc4nc(-c5ccccc5)ccc43)c2=O)c1 | 1050 |
| CC(C)CNC(=O)c1sc2ncccc2c1-n1cccc1 | 971 |
| Cn1cc(CCN2CCN(S(=O)(=O)c3ccc(F)c(Cl)c3)CC2)c2cccnc21 | 660 |
| Cn1cc(-c2nc(C(=O)N3CCN(c4ccccc4)CC3)cs2)c2cccnc21 | 911 |
| Cn1cnc(S(=O)(=O)N2CCC(C(=O)Nc3ccc4c(c3)OCCO4)CC2)c1 | 663 |
| CC(C)Cn1cc(S(=O)(=O)Nc2cccc(Cl)c2)c2cccnc21 | 912 |
| O=C(NC1(c2nc(-c3ccccc3)no2)CCCCC1)c1ccc2c(c1)OCO2 | 1120 |
| CCCS(=O)(=O)c1nc2ccc(NS(=O)(=O)Cc3ccc(Cl)cc3)cc2s1 | 953 |
| Cc1cc2c(c(=O)n(-c3ccccc3)c(=O)n2CC(=O)Nc2ccc3c(c2)OCO3)n1C | 760 |
| CS(=O)(=O)N1CCC(N2C[C@H](Oc3ccccc3)[C@@H]2c2ccncc2)CC1 | 630 |
| COc1ccc(CC(=O)NCc2c(C)cc(C)nc2-c2ccc(OC)cc2)cc1 | 708 |
| O=C1CCCc2cc(S(=O)(=O)N3CCC(C(=O)NCc4ccco4)CC3)ccc2N1 | 678 |
| CN1CCN(c2ccc(-c3nc(-c4ccccc4)no3)cn2)CC1 | 664 |
| COCCc1noc(-c2cnc3nc(C)ccc3c2Nc2ccccc2Cl)n1 | 779 |
| CCCNC(=O)Nc1ccc(C)cc1C | 827 |
| CC1CCN(C(=O)C2CCN(S(C)(=O)=O)c3ccccc3O2)CC1 (stereo unspecified) | 802 |
| COc1cc(C2CC(=O)N(CC(=O)NCC3CCCO3)c3ccccc3S2)cc(OC)c1OC (stereo unspecified) | 772 |
| CC(=O)Nc1ccc(OCC(=O)NCc2cc(F)ccc2F)nc1 | 681 |
| COc1ccc(NC(=O)NCCC2CCN(S(=O)(=O)c3ccccc3)CC2)cc1 | 822 |
| Cc1ccsc1C(=O)NCCC1CCN(C(=O)Nc2cc(F)cc(F)c2)CC1 | 915 |
| O=C(N[C@H]1C[C@@H]2C[C@H]1N(C(=O)COc1cccc(Cl)c1)C2)c1ccccc1 | 829 |
| O=C(Cc1ccccc1Br)N1CCN(c2cc(-c3ccccc3)[nH]n2)CC1 | 853 |
